Patent US20250170267A1, “ANTIBODY-DRUG CONJUGATE PRECURSOR AND INTERMEDIATE FOR SYNTHESIS THEREOF” (UBE Corporation, priority 2022, published 2025)
Numbered stars: 1 amine (or outer) side, 2 acyl side, 3 side chain; on linkers, the order of the positions; unused ones are H or OH. Square brackets hold non-standard residues; d marks the D form. Peptide text beside a SMILES is read from it. * marks the point of attachment. βAla(2S-maleimido) = O=C1C=CC(=O)N1[C@@H](CN[*:1])C(=O)[*:2]; Dolaproine = CO[C@@H]([C@@H]1CCCN1)[C@@H](C)C(=O)O; Propanoyl(3-maleimido) = O=C1C=CC(=O)N1CCC(=O)*; Dil = CC[C@H](C)[C@H](NC)[C@@H](CC(=O)O)OC; X3 = C[C@@H](N*)[C@@H](OP(=O)(O)O)c1ccccc1; Propanoyl(3-PO3H2) = O=C(CCP(=O)(O)O)*; PABC = O=C(OCc1ccc(N[*:1])cc1)[*:2]; X1 = C[C@@H](N*)[C@@H](O)c1ccccc1; hSer(lactone) = O=C1OCC[C@@H]1N*; Cit = NC(=O)NCCC[C@H](N)C(=O)O; PEG4 = NCCOCCOCCOCCOCCC(=O)O; NMeV = CN[C@H](C(=O)O)C(C)C

How the values were obtained:
[1] = Retention time in HPLC (index of hydrophilicity); type: physicochemical; conditions: BEH C18, 0.1% formic acid/acetonitrile gradient, 40° C.
Protocol: As an index of hydrophilicity of the Examples, the retention time (RT) in HPLC analysis was measured, and compared.
Device: LCMS2020 system Shimadzu Corporation
Column: Acquity UPLC (registered trademark) BEH C18 (2.1×50 mm, 1.7 μm)_Waters
Eluent: Solution A: 0.1% aqueous solution of formic acid, Solution B: 0.1% solution of formic acid in acetonitrile

human topoisomerase I = target: T1, human topoisomerase I (Homo sapiens, UniProt P11387); assay: Topoisomerase I activity inhibition test; type: biochemical; conditions: supercoiled plasmid DNA, 37° C., 60 minutes
T1 construct: purchased Sigma T9069
T1 sequence (P11387 1-765): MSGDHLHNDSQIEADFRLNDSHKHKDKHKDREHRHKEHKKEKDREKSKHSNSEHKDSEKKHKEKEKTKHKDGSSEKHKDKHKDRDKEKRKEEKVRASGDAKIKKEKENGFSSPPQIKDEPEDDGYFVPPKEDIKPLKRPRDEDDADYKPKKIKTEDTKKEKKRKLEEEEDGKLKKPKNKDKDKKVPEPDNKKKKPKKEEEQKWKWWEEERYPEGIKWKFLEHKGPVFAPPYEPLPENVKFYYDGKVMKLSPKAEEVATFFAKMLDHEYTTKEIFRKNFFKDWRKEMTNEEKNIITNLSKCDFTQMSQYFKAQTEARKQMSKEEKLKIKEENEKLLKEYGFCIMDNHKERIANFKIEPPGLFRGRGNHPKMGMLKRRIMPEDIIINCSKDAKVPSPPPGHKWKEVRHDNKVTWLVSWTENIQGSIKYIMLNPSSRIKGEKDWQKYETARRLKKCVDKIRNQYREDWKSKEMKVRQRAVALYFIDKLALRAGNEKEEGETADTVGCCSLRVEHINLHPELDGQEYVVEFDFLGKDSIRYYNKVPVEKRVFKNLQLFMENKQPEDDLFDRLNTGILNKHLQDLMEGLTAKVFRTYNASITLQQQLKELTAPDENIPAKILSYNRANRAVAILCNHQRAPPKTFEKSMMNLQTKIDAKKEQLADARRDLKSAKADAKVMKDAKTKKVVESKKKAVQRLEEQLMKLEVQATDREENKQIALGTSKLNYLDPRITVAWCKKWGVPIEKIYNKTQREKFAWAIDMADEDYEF
Protocol: For measuring topoisomerase I activity inhibitory actions, Human DNA Topoisomerase I Assay Kit (manufactured by ProFoldin, HRA100K) was used. A human topoisomerase I (manufactured by Sigma, T9069) was added to a Tris-HCl buffer containing KCl, DTT, MgCl2, EDTA, and BSA to prepare a reaction solution. The reaction solution (35.2 μL) and a test compound solution (4.4 μL) prepared by an aqueous solution containing 10% DMSO were mixed in a 1.5 mL microtube, and the resulting mixture was reacted at 37° C. for 10 minutes. Subsequently, a supercoiled plasmid DNA (4.4 μL) was added thereto, and the resulting mixture was reacted at 37° C. for 60 minutes. After the reaction, the solution was added to a 96 well plate (manufactured by Corning Inc., 3904) at 40 μL/well, and a Dye H19 solution (250 μL) diluted 10 times with the buffer included with the kit was added thereto. A microplate reader (Infinite F500, manufactured by TECAN) was used to measure the fluorescence intensity (excitation wavelength: 485 nm, detection wavelength: 535 nm) of each well.
The topoisomerase I activity inhibition rate (%) was calculated by the following equation.

human liver lysosome = assay: Metabolism test using human liver lysosomal fraction; type: in vitro ADME; conditions: 37° C., 24 hours, released drug, LC-MS/MS
Protocol: To a reaction composition solution (X10 Catabolic Buffer (manufactured by SEKISUI-Xenotech, LLC., K5200))(60 μL) in which human liver lysosome (manufactured by SEKISUI-Xenotech, LLC., Cat No. H610.L 2.5 mg/mL)(corresponding to 0.125 mg of protein) was suspended and distilled water (manufactured by FUJIFILM Wako Pure Chemical Corporation, for HPLC)(10 μL) was added 1.2 μM test compound (antibody-drug conjugate produced in ADC Production examples)(25 μL) dissolved in PBS to prepare a reaction solution. After the reaction solution was incubated at 37° C. for 24 hours, “an antitumor drug molecule or an analog thereof, or a derivative thereof” released from the antibody-drug conjugate into the reaction solution was quantified by LC-MS/MS (high performance liquid chromatography/mass spectrometer system) under the following conditions. LC-MS/MS analysis conditions
(§1) LC: LC20 or LC30 HPLC system manufactured by Shimadzu Corporation
(§2) Column: Phenomenex Kinetex C18 (50×2.1 mm, 2.6 μm)
(§3) Column temperature: 40° C.
(§4) Mobile phase A: 0.1% aqueous solution of formic acid, Mobile phase B: 0.1% solution of formic acid in a mixture of 50% acetonitrile/methanol
(§5) Mode: Positive or Negative
(§6) The release rate (%) of drug was calculated by the following equation.

human liver Cathepsin B = target: T2, human liver Cathepsin B (Homo sapiens, UniProt P07858); assay: Metabolism test using human liver Cathepsin B; type: in vitro ADME; conditions: 37° C., 24 hours, released drug, LC-MS/MS
T2 construct: human liver Cathepsin B (manufactured by Sigma-Aldrich Co. LLC, Cat No. C8571 25 μg/vial); purchased Sigma-Aldrich Co. LLC C8571; host or cells: human liver
Protocol: To human liver Cathepsin B (manufactured by Sigma-Aldrich Co. LLC, Cat No. C8571 25 μg/vial)(corresponding to 400 Unit/mL)(5 μL), X10 Catabolic Buffer (manufactured by SEKISUI-Xenotech, LLC., K5200)(10 μL), 2.5 mM Bovine Serum Albumin (manufactured by FUJIFILM Wako Pure Chemical Corporation, Cat No. 012-15093)(5 μL), and distilled water (manufactured by FUJIFILM Wako Pure Chemical Corporation, for HPLC)(55 μL) was added 1.2 μM test compound (antibody-drug conjugate prepared in ADC Production examples)(25 μL) dissolved in PBS to prepare a reaction solution. After the reaction solution was incubated at 37° C. for 24 hours, “an antitumor drug molecule or an analog thereof, or a derivative thereof” released from the antibody-drug conjugate into the reaction solution was quantified by LC-MS/MS (high performance liquid chromatography/mass spectrometer system) under the following conditions. LC-MS/MS analysis conditions
as §1, §2, §3, §4, §5, §6

[2] = Pharmacokinetic test (serum trastuzumab residual rate); type: in vivo; conditions: female BALB/c mouse, intravenous; 3 days vs 5 minutes after administration
From the text: After a prescribed time period, the blood was collected from the jugular vein or abdominal vein, and centrifuged to prepare a serum. The resulting serum was cryopreserved until the measurement.

SMILES | IC50 (human topoisomerase I) [µM] | Retention time in HPLC measurement ([1]; Table 5 (MMAE-type precursors)) [min] | other results
C=C1C[C@@H]2CC[C@@]34C[C@H]5O[C@H]6[C@@H](O3)[C@H]3O[C@H](CC[C@@H]3O[C@H]6[C@H]5O4)CC(=O)C[C@@H]3[C@@H](OC)[C@@H](C[C@@H](CNC(=O)OCc4ccc(NC(=O)[C@H](CCCNC(N)=O)NC(=O)[C@@H](NC(=O)[C@H](CC(=O)N[C@H]5CCOC5=O)NC(=O)CCOCCOCCOCCOCCNC(=O)[C@H](CNC(=O)CCP(=O)(O)O)N5C(=O)C=CC5=O)C(C)C)cc4)OP(=O)(O)O)O[C@H]3C[C@H]3O[C@@H](CC[C@@H]1O2)C[C@@H](C)C3=C [Example 26] | – | – | Retention time in HPLC measurement ([1]; Table 6 (eribulin precursors)): 0.91 min
CC[C@@]1(O)C(=O)OCc2c1cc1n(c2=O)Cc2c-1nc1cc(F)c(C)c3c1c2[C@@H](NC(=O)CCO)CC3 [Example U-002] | ≤ 15 | – | –
CC[C@@]1(O)C(=O)OCc2c1cc1n(c2=O)Cc2c-1nc1cc(F)c(C)c3c1c2[C@@H](NC(=O)c1cccc(N)c1)CC3 [Example U-004] | ≤ 15 | – | –
CC[C@H](C)[C@@H]([C@@H](CC(=O)N1CCC[C@H]1[C@H](OC)[C@@H](C)C(=O)N[C@H](C)[C@@H](OP(=O)(O)O)c1ccccc1)OC)N(C)C(=O)[C@@H](NC(=O)[C@H](C(C)C)N(C)C(=O)OCc1ccc(NC(=O)[C@H](CCCNC(N)=O)NC(=O)[C@@H](NC(=O)[C@H](CC(=O)N[C@H]2CCOC2=O)NC(=O)CCOCCOCCOCCOCCNC(=O)CCN2C(=O)C=CC2=O)C(C)C)cc1)C(C)C [Example 2] ({Propanoyl(3-maleimido)-PEG4}-D(hSer(lactone))V[Cit][PABC][NMeV]V[Dil][Dolaproine]-X3) | – | 0.96 | –
CC[C@H](C)[C@@H]([C@@H](CC(=O)N1CCC[C@H]1[C@H](OC)[C@@H](C)C(=O)N[C@H](C)[C@@H](O)c1ccccc1)OC)N(C)C(=O)[C@@H](NC(=O)[C@H](C(C)C)N(C)C(=O)OCc1ccc(NC(=O)[C@H](CCCNC(N)=O)NC(=O)[C@@H](NC(=O)[C@H](CC(=O)N[C@H]2CCOC2=O)NC(=O)CCOCCOCCOCCOCCNC(=O)CCN2C(=O)C=CC2=O)C(C)C)cc1)C(C)C [Example 1] ({Propanoyl(3-maleimido)-PEG4}-D(hSer(lactone))V[Cit][PABC][NMeV]V[Dil][Dolaproine]-X1) | – | 1.12 | Release rate (%) of drug from ADC (human liver lysosome): 68%; Release rate (%) of drug from ADC (human liver Cathepsin B): 71%; Serum trastuzumab residual rate after 3 days from administration (%) [2]: 35%
CC[C@H](C)[C@@H]([C@@H](CC(=O)N1CCC[C@H]1[C@H](OC)[C@@H](C)C(=O)N[C@H](C)[C@@H](O)c1ccccc1)OC)N(C)C(=O)[C@@H](NC(=O)[C@H](C(C)C)N(C)C(=O)OCc1ccc(NC(=O)[C@H](CCCNC(N)=O)NC(=O)[C@@H](NC(=O)[C@H](CC(=O)N[C@H]2CCOC2=O)NC(=O)CCOCCOCCOCCOCCNC(=O)[C@H](CNC(=O)CCP(=O)(O)O)N2C(=O)C=CC2=O)C(C)C)cc1)C(C)C [Example 8] ({Propanoyl(3-PO3H2)}-[βAla(2S-maleimido)][PEG4]D(hSer(lactone))V[Cit][PABC][NMeV]V[Dil][Dolaproine]-X1) | – | 1.03 | Release rate (%) of drug from ADC (human liver lysosome): 60%; Release rate (%) of drug from ADC (human liver Cathepsin B): 41%
CC[C@@]1(O)C(=O)OCc2c1cc1n(c2=O)Cc2c-1nc1cc(F)c(C)c3c1c2[C@@H](NC(C)=O)CC3 [Example U-001] | ≤ 15 | – | –
